Data set [1] in a line: in vitro metabolic stability in human liver microsomes. The following applies: human, liver microsomes, compound 0.5 μM, human liver microsomes 0.5 mg/mL, NADPH, 40 min, 37° C.; read-out: Human liver microsome Clapp (apparent intrinsic clearance). In kind it is in vitro ADME. Here is the method:
To assess the in vitro metabolic stability, the compounds (0.5 μM) were incubated in duplicates with human liver microsomes (0.5 mg/mL) in phosphate buffer and NADPH, in 96-well plates for 40 min (37° C.), using a liquid handling robot (Hamilton Microlab Star). Sample aliquots were taken at 0, 5, 10, 20 and 40 min, and dispensed into cold acetonitrile, in order to stop the reactions. The plates were centrifuged for 30 minutes before the samples were analyzed using liquid chromatography coupled to a time-of-flight mass spectrometer (AB Sciex API5600). The compound depletion over time was used to estimate the elimination rate constant, from which the apparent intrinsic clearance, Clapp, was calculated and the values are listed in table 2.
A general note: Liver microsomes are vesicles of endoplasmic reticulum, rich in cytochrome P450 enzymes.

The target of a further data set is TYK2 (Homo sapiens (Human), UniProt P29597). The experiment in a line: JAK kinase assay (HTRF), TYK2. It counts as biochemical. As to conditions: catalytic domain (aa 871-1187), GST-tag, ATP at Km (13 μM). The procedure, abridged:
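Recombinant human TYK2 catalytic domain (aa 871-1187), baculovirus-expressed with an N-terminal GST-tag, was tested for inhibition of TK substrate-biotin phosphorylation by HTRF. Final reaction: 50 mM Hepes pH 7.0, 0.01% BSA, 5 mM MgCl2, 1 mM DTT, 13 μM ATP (Km), 50 nM SEB, 1 μM substrate, 0.8 ng TYK2, 0.75% DMSO, 20-30 min at RT. EDTA/KF detection mix with Streptavidin-XL665 and STK Ab Cryptate, overnight dark incubation, Envision read.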
(In TR-FRET formats the signal depends on donor and acceptor labels being close together.)

For another data set, the target named is JAK2 (Homo sapiens (Human), UniProt O60674). The experiment in a line: JAK kinase assay (HTRF), JAK2. It counts as biochemical. The following applies: catalytic domain, His-tag, ATP at Km (4 μM). Summed up: (§1)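 Catalytic-domain human JAK1 (GST-tagged, aa 850-1154) or His-tagged JAK2, baculovirus-expressed, phosphorylated 1 µM biotinylated TK peptide at Km ATP (JAK1 7 µM, 10 mM MgCl2, 50 nM SEB; JAK2 4 µM, 5 mM MgCl2) in pH 7.0 Hepes, 20-30 min RT. EDTA stop; overnight streptavidin-XL665/cryptate HTRF read.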

The next data set has as its target JAK1 (Homo sapiens (Human), UniProt P23458). The experiment in a line: JAK kinase assay (HTRF), JAK1. In kind it is biochemical. As to conditions: catalytic domain (aa 850-1154), GST-tag, ATP at Km (7 μM). The procedure, abridged:
as §1

In a further data set the target is JAK3 (Homo sapiens (Human), UniProt P52333). The experiment in a line: JAK kinase assay (HTRF), JAK3. It counts as biochemical. As to conditions: catalytic domain, His-tag, ATP at Km (2 μM). The procedure, abridged: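 Recombinant human JAK3 catalytic domain, baculovirus-expressed with an N-terminal His-tag (Carna Biosciences), was tested for inhibition of TK substrate-biotin phosphorylation by HTRF. Compound (0.75% DMSO final) was combined with substrate and kinase-ATP mix: 50 mM Hepes pH 7.0, 0.01% BSA, 5 mM MgCl2, 1 mM DTT, 2 μM ATP (Km), 1 μM substrate, 0.3 ng JAK3. After 20-30 min at RT, KF/EDTA detection mix with Streptavidin-XL665 and STK Ab Cryptate was added; signal read on Envision after overnight dark incubation.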

One may read the EC50 as the concentration giving half of the maximal effect. Read a high EC50 as a less potent agent.

JAK1, sequence (P23458 850-1154): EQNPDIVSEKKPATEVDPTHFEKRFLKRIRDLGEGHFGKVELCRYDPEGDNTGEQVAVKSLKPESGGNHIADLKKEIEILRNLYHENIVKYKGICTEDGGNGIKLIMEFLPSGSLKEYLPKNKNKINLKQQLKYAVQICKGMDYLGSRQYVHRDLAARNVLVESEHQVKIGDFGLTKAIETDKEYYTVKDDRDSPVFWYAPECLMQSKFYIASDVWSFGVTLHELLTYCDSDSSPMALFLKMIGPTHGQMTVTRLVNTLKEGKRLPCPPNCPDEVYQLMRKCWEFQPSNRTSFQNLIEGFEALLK
TYK2, sequence (P29597 871-1187): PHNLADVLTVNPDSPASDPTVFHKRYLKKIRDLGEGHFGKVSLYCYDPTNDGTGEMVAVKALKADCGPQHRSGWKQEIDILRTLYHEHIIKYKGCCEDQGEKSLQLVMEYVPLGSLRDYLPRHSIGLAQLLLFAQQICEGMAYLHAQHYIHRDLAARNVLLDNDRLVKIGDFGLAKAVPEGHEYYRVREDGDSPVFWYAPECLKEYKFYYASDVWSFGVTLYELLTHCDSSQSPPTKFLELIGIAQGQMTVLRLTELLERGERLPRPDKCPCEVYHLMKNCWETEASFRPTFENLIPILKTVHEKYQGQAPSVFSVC
JAK3, sequence (P52333 822-1111): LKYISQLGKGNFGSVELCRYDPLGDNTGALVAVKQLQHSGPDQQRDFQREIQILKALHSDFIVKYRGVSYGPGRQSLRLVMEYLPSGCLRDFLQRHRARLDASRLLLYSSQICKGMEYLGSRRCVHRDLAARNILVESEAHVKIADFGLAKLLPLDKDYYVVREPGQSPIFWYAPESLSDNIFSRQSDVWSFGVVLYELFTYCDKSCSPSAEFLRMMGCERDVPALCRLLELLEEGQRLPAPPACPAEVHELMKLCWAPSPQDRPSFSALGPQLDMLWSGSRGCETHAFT
JAK2, sequence (O60674 849-1124): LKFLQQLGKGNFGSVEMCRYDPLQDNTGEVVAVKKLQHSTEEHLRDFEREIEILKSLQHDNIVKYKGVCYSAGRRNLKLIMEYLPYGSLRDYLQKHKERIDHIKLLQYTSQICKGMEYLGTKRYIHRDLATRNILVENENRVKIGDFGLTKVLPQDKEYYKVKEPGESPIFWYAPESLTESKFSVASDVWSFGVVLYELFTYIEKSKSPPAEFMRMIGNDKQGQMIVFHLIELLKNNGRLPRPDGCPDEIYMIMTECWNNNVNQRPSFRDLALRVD

For `C[C@@]12CN(C#N)CC[C@@H]1CCN(c1ncnc3[nH]ccc13)C2` [Example 3, (4aS,8aR)-8a-methyl-7-(7H-pyrrolo[2,3-d]pyrimidin-4-yl)-3,4,4a,5,6,8-hexahydro-1H-2,7-naphthyridine-2-carbonitrile], the CLint scaled at 0.5 μM in data set [1] is 60 mL/min/kg. For the same compound, the EC50 at TYK2 amounted to 1480 nM; on JAK2, 428 nM; at JAK1, 237 nM; at JAK3, 924 nM.
The matching figures for `CC[C@@]12CN(c3ncnc4[nH]ccc34)CC[C@@H]1CCN(S(N)(=O)=O)C2` (relative stereo) [Example 17, (4aR*,8aS*)-8a-ethyl-7-(7H-pyrrolo[2,3-d]pyrimidin-4-yl)-3,4,4a,5,6,8-hexahydro-1H-2,7-naphthyridine-2-sulfonamide]: 197 mL/min/kg, 45 nM, 7 nM, 2 nM and 3 nM.

For the origin of these results see patent US10851116B2, “Bicyclic amines as novel JAK kinase inhibitors” (LEO Pharma A/S, priority 2017, dated 2020).
